In patent US10717716B2, “1,3,4-oxadiazole derivative compounds as histone deacetylase 6 inhibitor, and the pharmaceutical composition comprising the same” (Chong Kun Dang Pharmaceutical Corp., priority 2015, dated 2020):

Molecular target: T1, human recombinant HDAC6 (Homo sapiens, UniProt Q9UBN7)
T1 construct: purchased Calbiochem 382180
T1 sequence (Q9UBN7 1-1215): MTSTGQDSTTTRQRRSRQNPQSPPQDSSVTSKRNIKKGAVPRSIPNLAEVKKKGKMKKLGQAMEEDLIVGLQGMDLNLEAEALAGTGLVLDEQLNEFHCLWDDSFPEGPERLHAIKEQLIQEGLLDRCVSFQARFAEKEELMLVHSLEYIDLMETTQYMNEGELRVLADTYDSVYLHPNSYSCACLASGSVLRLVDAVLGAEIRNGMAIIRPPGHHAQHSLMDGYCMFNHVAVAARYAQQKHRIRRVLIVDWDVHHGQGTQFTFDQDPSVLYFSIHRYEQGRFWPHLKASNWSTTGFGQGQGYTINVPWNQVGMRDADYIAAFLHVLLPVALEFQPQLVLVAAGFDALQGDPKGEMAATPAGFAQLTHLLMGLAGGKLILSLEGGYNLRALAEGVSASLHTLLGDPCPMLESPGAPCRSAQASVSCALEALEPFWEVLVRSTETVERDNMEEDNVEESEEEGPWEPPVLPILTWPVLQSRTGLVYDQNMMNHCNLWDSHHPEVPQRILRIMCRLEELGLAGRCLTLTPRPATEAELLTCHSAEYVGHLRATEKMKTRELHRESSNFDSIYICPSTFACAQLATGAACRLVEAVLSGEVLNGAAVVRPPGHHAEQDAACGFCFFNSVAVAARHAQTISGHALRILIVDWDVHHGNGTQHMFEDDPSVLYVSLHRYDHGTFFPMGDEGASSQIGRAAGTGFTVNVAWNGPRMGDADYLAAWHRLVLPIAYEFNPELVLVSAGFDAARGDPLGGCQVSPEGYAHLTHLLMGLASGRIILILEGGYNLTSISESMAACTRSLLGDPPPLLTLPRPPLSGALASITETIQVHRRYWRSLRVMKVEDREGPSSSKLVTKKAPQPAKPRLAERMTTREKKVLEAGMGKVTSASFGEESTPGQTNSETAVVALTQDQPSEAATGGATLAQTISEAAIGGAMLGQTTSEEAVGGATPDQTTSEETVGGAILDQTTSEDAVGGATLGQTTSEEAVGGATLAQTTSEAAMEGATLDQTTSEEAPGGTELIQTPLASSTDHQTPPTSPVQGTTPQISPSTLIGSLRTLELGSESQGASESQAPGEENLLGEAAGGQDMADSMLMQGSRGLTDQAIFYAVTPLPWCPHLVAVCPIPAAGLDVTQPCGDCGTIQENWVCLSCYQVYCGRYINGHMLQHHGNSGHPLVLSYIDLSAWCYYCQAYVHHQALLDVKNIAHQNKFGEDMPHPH
Test: HDAC6 enzyme activity inhibition assay (HDAC Fluorimetric Drug Discovery Kit)
Assay type: biochemical
Conditions: for HDAC6 selectivity (fold): HDAC6 over HDAC1; for IC50: human recombinant HDAC6, same protocol as HDAC1, read-out: HDAC6
Experimental: In order to examine the HDAC6 selectivity of the compounds of formula I of the present invention by HDAC1 and HDAC6 enzymatic activity inhibition assays, an experiment was performed using a conventional substance as a control.
HDAC enzyme activity was measured using a HDAC Fluorimetric Drug Discovery Kit (BML-AK511, 516, Enzo Life Science). For the HDAC1 enzyme activity test, human recombinant HDAC1 (BML-SE456) was used as an enzyme source, and Fluor de Lys®-“SIRT1 (BNL-KI177) was used as a substrate. A 5-fold dilution of the compound was seeded into a 96-well plate, and then 0.3 μg of the enzyme and 10 μM of the substrate were added to each well of the plate and allowed to react at 30° C. for 60 minutes. Then, Fluor de Lys®-Developer II (BML-KI176) was added thereto and allowed to react for 30 minutes, after which the fluorescence value (Ex 360, Em 460) was measured using a multi-plate reader (Flexstation 3, Molecular Device). The HDAC6 enzyme was tested using human recombinant HDAC6 (382180) (Calbiochem) according to the same protocol as the HDAC1 enzyme activity test method. Based on the resulting values, each IC5, value was calculated using GraphPad Prism4.0 program.

| SMILES | HDAC6 selectivity (fold) | IC50 [nM] |
| --- | --- | --- |
| O=C(N1CCOCC1)N(Cc1ccc(CCc2nnc(C(F)(F)F)o2)cc1)c1ccccc1 [Compound 21327, N-phenyl-N-(4-(2-(5-(trifluoromethyl)-1,3,4-oxadiazol-2-yl)ethyl)benzyl)morpholine-4-carboxamide] | 1 | – |
| O=C(N1CCOCC1)N(Cc1cccc(-c2nnc(C(F)(F)F)o2)c1)c1ccccc1 [Compound 21329, N-phenyl-N-(3-(5-(trifluoromethyl)-1,3,4-oxadiazol-2-yl)benzyl)morpholine-4-carboxamide] | 1 | – |
| O=C(N1CCOCC1)N(Cc1ccc(-c2nnc(C(F)(F)F)o2)nc1)c1ccccc1 [Compound 21333, N-phenyl-N-((6-(5-(trifluoromethyl)-1,3,4-oxadiazol-2-yl)pyridin-3-yl)methyl)morpholine-4-carboxamide] | 1 | – |
| O=C(NC1CCC1)N(Cc1ccc(-c2nnc(C(F)(F)F)o2)cc1)c1ccccc1 [Compound 21340, 3-Cyclobutyl-1-phenyl-1-(4-(5-(trifluoromethyl)-1,3,4-oxadiazol-2-yl)benzyl)urea] | 12 | 836 |
| O=C(NC1CCCC1)N(Cc1ccc(-c2nnc(C(F)(F)F)o2)cc1)c1ccccc1 [Compound 21341, 3-Cyclopentyl-1-phenyl-1-(4-(5-(trifluoromethyl)-1,3,4-oxadiazol-2-yl)benzyl)urea] | 8 | 1190 |
| O=C(NC1CCCCC1)N(Cc1ccc(-c2nnc(C(F)(F)F)o2)cc1)c1ccccc1 [Compound 21342, 3-Cyclohexyl-1-phenyl-1-(4-(5-(trifluoromethyl)-1,3,4-oxadiazol-2-yl)benzyl)urea] | 5 | 1990 |
| COc1cc(-c2nnc(C(F)(F)F)o2)ccc1CN(C(=O)N1CCOCC1)c1ccccc1 [Compound 21343, N-(2-methoxy-4-(5-(trifluoromethyl)-1,3,4-oxadiazol-2-yl)benzyl)-N-phenylmorpholine-4-carboxamide] | 1 | 10700 |
| O=C(N1CCN(Cc2ccccc2)CC1)N(Cc1ccc(-c2nnc(C(F)(F)F)o2)cc1)c1ccccc1 [Compound 21344, 4-Benzyl-N-phenyl-N-(4-(5-(trifluoromethyl)-1,3,4-oxadiazol-2-yl)benzyl)piperazine-1-carboxamide] | 12 | 830 |
| O=C(N1CCOCC1)N(CCc1ccc(-c2nnc(C(F)(F)F)o2)cc1)c1ccccc1 [Compound 21348, N-phenyl-N-(4-(5-(trifluoromethyl)-1,3,4-oxadiazol-2-yl)phenethyl)morpholine-4-carboxamide] | 1 | 8360 |
| CC(C)(C)OC(=O)N1CCN(C(=O)N(Cc2ccc(-c3nnc(C(F)(F)F)o3)cc2)c2ccccc2)CC1 [Compound 21352, Tert-butyl 4-(phenyl(4-(5-(trifluoromethyl)-1,3,4-oxadiazol-2-yl)benzyl)carbamoyl)piperazine-1-carboxylate] | 9 | 1100 |

Further compounds by falling IC50, results first:

| HDAC6 selectivity (fold) | IC50 [nM] | SMILES |
| --- | --- | --- |
| 14 | 720 | CCNC(=O)N(Cc1ccc(-c2nnc(C(F)(F)F)o2)cc1)c1ccccc1 [Compound 21353, 3-Ethyl-1-phenyl-1-(4-(5-(trifluoromethyl)-1,3,4-oxadiazol-2-yl)benzyl)urea] |
| 19 | 530 | O=C(N1CCCC1)N(Cc1ccc(-c2nnc(C(F)(F)F)o2)cc1)c1ccccc1 [Compound 21350, N-phenyl-N-(4-(5-(trifluoromethyl)-1,3,4-oxadiazol-2-yl)benzyl)pyrrolidine-1-carboxamide] |
| 23 | 430 | O=C(N1CCC1)N(Cc1ccc(-c2nnc(C(F)(F)F)o2)cc1)c1ccccc1 [Compound 21349, N-phenyl-N-(4-(5-(trifluoromethyl)-1,3,4-oxadiazol-2-yl)benzyl)azetidine-1-carboxamide] |
| 26 | 380 | CCCNC(=O)N(Cc1ccc(-c2nnc(C(F)(F)F)o2)cc1)c1ccccc1 [Compound 21354, 1-Phenyl-3-propyl-1-(4-(5-(trifluoromethyl)-1,3,4-oxadiazol-2-yl)benzyl)urea] |
| 38 | 261 | O=C(N1CCCCC1)N(Cc1ccc(-c2nnc(C(F)(F)F)o2)cc1)c1ccccc1 [Compound 21351, N-phenyl-N-(4-(5-(trifluoromethyl)-1,3,4-oxadiazol-2-yl)benzyl)piperidine-1-carboxamide] |
| 52 | 192 | O=C(N1CCOCC1)N(Cc1ccc(-c2nnc(C(F)(F)F)o2)c(F)c1)c1ccccc1 [Compound 21319, N-(3-fluoro-4-(5-(trifluoromethyl)-1,3,4-oxadiazol-2-yl)benzyl)-N-phenylmorpholine-4-carboxamide] |
| 54 | 185 | COCCN1CCN(C(=O)N(Cc2ccc(-c3nnc(C(F)(F)F)o3)cc2)c2ccccc2)CC1 [Compound 21345, 4-(2-Methoxyethyl)-N-phenyl-N-(4-(5-(trifluoromethyl)-1,3,4-oxadiazol-2-yl)benzyl)piperazine-1-carboxamide] |
| 55 | 183 | CC(C)N1CCN(C(=O)N(Cc2ccc(-c3nnc(C(F)(F)F)o3)cc2)c2ccccc2)CC1 [Compound 21347, 4-Isopropyl-N-phenyl-N-(4-(5-(trifluoromethyl)-1,3,4-oxadiazol-2-yl)benzyl)piperazine-1-carboxamide] |
| 58 | 173 | CCN1CCN(C(=O)N(Cc2ccc(-c3nnc(C(F)(F)F)o3)cc2)c2ccccc2)CC1 [Compound 21346, 4-Ethyl-N-phenyl-N-(4-(5-(trifluoromethyl)-1,3,4-oxadiazol-2-yl)benzyl)piperazine-1-carboxamide] |
| 91 | 110 | CN1CCN(C(=O)N(Cc2ccc(-c3nnc(C(F)(F)F)o3)cc2)c2ccccc2)CC1 [Compound 21285, 4-methyl-N-phenyl-N-(4-(5-(trifluoromethyl)-1,3,4-oxadiazol-2-yl)benzyl)piperazine-1-carboxamide] |
| 105 | 95 | O=C(N1CCOCC1)N(Cc1ccc(-c2nnc(C(F)(F)F)o2)cn1)c1ccccc1 [Compound 21336, N-phenyl-N-((5-(5-(trifluoromethyl)-1,3,4-oxadiazol-2-yl)pyridin-2-yl)methyl)morpholine-4-carboxamide] |
| 145 | 69 | O=C(N1CCOCC1)N(Cc1ccc(-c2nnc(C(F)(F)F)o2)cc1F)c1ccccc1 [Compound 21318, N-(2-fluoro-4-(5-(trifluoromethyl)-1,3,4-oxadiazol-2-yl)benzyl)-N-phenylmorpholine-4-carboxamide] |
| 204 | 49 | O=C(N1CCOCC1)N(Cc1ccc(-c2nnc(C(F)F)o2)cc1)c1ccccc1 [Compound 21325, N-(4-(5-(difluoromethyl)-1,3,4-oxadiazol-2-yl)benzyl)-N-phenylmorpholine-4-carboxamide] |
| 357 | 28 | O=C(N1CCOCC1)N(Cc1ccc(-c2nnc(C(F)F)o2)cc1F)c1ccccc1 [Compound 21337, N-(4-(5-(difluoromethyl)-1,3,4-oxadiazol-2-yl)-2-fluorobenzyl)-N-phenylmorpholine-4-carboxamide] |
